Converted amounts (≈) assume the structure as drawn. “And” between values parts separate entries of the source, which are not always exact repeats. Equal entries are not always repeated. Where two headings read alike, the source gives them in different places. Peptide text beside a SMILES is read from it. * marks the point of attachment. Cbz = O=C(OCc1ccccc1)*
Assays:
NikA [1] = format: binding, Klebsiella pneumoniae; conditions: 100 μM
[2] = test system: S. aureus urease activity (whole cell); format: cell-based, Staphylococcus aureus; conditions: S. aureus, artificial urine, 24 h
[3] = test system: K. pneumoniae urease activity (whole cell); experiment: microbe, parasite or virus in culture; format: cell-based, Klebsiella pneumoniae ATCC 33495; conditions: for K. pneumoniae urease-dependent pH change (pH): 37 °C; for EC50: Klebsiella pneumoniae, read-out: EC50, half-maximal effective concentration required to suppress urease-dependent pH change
NikA [4] = target: NikA (Klebsiella pneumoniae, UniProt A6TFA3); format: binding; conditions: for n (stoichiometry, ITC) / ∆G / ∆H / −T∆S: 37 °C; for n (stoichiometry, ITC) / ∆G / ∆H / −T∆S / -∆TS: pH 7.5; for -∆TS: Fig S13, 37 °C; for Kd: read-out: KD for NikA (ITC), 25 mM Tris-HCl, 150 mM NaCl, 0.1% Triton X-100, pH 7.5, 37 °C; for fold improvement of affinity for NikA: relative to Zn-AMA
NikA (Klebsiella pneumoniae, UniProt A6TFA3), sequence (A6TFA3 entry or part of it): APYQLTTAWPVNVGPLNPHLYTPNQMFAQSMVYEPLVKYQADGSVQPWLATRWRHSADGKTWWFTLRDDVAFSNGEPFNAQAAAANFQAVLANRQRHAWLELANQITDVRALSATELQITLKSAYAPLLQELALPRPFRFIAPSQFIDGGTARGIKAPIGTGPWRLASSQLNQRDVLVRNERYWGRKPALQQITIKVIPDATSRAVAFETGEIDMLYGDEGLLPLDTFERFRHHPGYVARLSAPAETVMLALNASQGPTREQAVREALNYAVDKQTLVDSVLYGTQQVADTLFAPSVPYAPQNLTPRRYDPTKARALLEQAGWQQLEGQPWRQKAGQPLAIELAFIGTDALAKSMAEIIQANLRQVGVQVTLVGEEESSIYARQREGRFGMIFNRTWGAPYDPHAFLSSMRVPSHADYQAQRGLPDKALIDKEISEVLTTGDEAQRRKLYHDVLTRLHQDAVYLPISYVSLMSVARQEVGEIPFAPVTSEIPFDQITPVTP

urease = target: T1, urease (Klebsiella pneumoniae subsp. pneumoniae, UniProt A6TE40+A6TE41+A6TE42); experiment: Urease activity in cell-free extracts (NH3 release, indophenol-hypochlorite); format: biochemical
T1 construct: endogenous in cells; host or cells: Klebsiella pneumoniae (ATCC 33495), sonicated and cleared lysate
T1 sequence (A6TE41 whole entry): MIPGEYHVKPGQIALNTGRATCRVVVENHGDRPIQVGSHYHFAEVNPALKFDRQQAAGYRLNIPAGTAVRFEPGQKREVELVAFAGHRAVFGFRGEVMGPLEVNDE
T1 sequence (A6TE40 whole entry): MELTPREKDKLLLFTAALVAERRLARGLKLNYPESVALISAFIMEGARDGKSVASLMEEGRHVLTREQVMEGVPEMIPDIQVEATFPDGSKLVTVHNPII
T1 sequence (A6TE42 whole entry): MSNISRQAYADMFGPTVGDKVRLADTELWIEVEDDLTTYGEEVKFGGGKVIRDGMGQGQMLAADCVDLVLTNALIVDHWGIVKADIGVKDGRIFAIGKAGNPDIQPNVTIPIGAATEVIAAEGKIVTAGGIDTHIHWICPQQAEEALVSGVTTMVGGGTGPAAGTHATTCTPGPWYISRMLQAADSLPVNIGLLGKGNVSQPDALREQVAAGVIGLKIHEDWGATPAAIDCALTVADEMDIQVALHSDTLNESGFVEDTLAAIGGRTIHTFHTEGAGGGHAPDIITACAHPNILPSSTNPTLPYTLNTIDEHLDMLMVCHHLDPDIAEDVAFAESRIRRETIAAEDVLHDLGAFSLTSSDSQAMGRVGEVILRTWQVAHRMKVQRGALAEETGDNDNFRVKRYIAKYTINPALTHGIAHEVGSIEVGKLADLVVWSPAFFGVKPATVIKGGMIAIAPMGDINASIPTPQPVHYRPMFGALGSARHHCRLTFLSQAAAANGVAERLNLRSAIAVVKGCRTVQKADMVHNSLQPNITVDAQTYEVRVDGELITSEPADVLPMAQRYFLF
Experimental: The cells were subsequently lysed by sonication, and cell debris was removed with centrifugation (20,000 × g, 10 min). […] Liberated NH3 was quantified using the indophenol-hypocholorite reaction as previously described. The total amount of protein was quantified by Bradford assay using bovine serum albumin as standard. Each assay was performed in duplicate wells.
FIG S7 Evaluation of Zn-AMA as a direct inhibitor of urease. A) Checkerboard analysis of Zn-AMA and AHA on urease activity of K. […]
Dose- […]
response curves of fluorofamide, Zn-AMA, and AMA inhibiting the urease-catalyzed release of NH3 quantified with indophenol hypochlorite. The rates of NH3 production were measured over 20 min and were normalized to total protein concentration. Experiments were performed in duplicate. Individual replicates are shown as colored circles.

HEK293 cells = experiment: HEK293 cytotoxicity assay (Cell Titer Glo 2.0)
[5] = test system: K. pneumoniae urease activity (whole cell); experiment: Checkerboard analysis of Zn-AMA and AHA on urease activity; format: cell-based, Klebsiella pneumoniae; conditions: Zn-AMA 0 μM
Experimental: To guide our exploration of the mode of action of Zn-AMA, we investigated whether a chemical-chemical interaction occurs with the urease inhibitor AHA. […] We subsequently performed inductively coupled plasma mass spectrometry (ICP-MS) analyses to evaluate the intracellular Ni^2+ and Zn^2+ content of K. pneumoniae.
K. pneumoniae whole-cell urease activity was determined with artificial urine containing 0.2% (w/v) casamino acids and 0.01% (w/v) phenol red in 96-well plates. For the growth of S. aureus in artificial urine, the medium was supplemented with 10% LB. After 20–24 hours of growth, bacteria were removed using 0.45 μm filter plates, and the final A550 of the medium was measured using a plate reader.
FIG S7 Evaluation of Zn-AMA as a direct inhibitor of urease. A) Checkerboard analysis of Zn-AMA and AHA on urease activity of K.
pneumoniae after growth for 24 h at 37 °C artificial urine. pH is represented by the color scale determined with phenol red. […]

K. pneumoniae = format: cell-based, Klebsiella pneumoniae; conditions: for Growth curve (culture density): 50 μM
[6] = K. pneumoniae, artificial urine, 24 h
[7] = K. pneumoniae, artificial urine

## [Cl-].[Cl-].[Zn+2] [ZnCl2, reference compound]
NikA [1]
  effect on stability of recombinant NikA: stabilized NikA
[2]
  effect on urease activity: did not affect urease activity
[3]; 0.39 μM, artificial urine, 24 h
  K. pneumoniae urease-dependent pH change (pH): 8.18 and 8.29
[3]; 0.78 μM, artificial urine, 24 h
  K. pneumoniae urease-dependent pH change (pH): 8.27 and 8.39
[3]; 1.56 μM, artificial urine, 24 h
  K. pneumoniae urease-dependent pH change (pH): 8.17 and 8.34
[3]; 3.12 μM, artificial urine, 24 h
  K. pneumoniae urease-dependent pH change (pH): 8.20 and 8.42
[3]; 6.25 μM, artificial urine, 24 h
  K. pneumoniae urease-dependent pH change (pH): 8.19 and 8.30
[3]; 12.5 μM, artificial urine, 24 h
  K. pneumoniae urease-dependent pH change (pH): 8.23 and 8.21
[3]; 25 μM, artificial urine, 24 h
  K. pneumoniae urease-dependent pH change (pH): 8.25 and 8.11
[3]; 50 μM, artificial urine, 24 h
  K. pneumoniae urease-dependent pH change (pH): 8.14 and 8.06
[3]; 100 μM, artificial urine, 24 h
  K. pneumoniae urease-dependent pH change (pH): 8.06 and 8.01
[3]; 200 μM, artificial urine, 24 h
  K. pneumoniae urease-dependent pH change (pH): 7.51 and 7.49
[3]; [6]
  effect on urease activity: did not affect urease activity

## N[C@@H](CN[C@@H](CC(=O)O)C(=O)O)C(=O)O.[Zn+2] [Zn-Toxin A]
NikA [4]
  n (stoichiometry, ITC): 1.15
  ∆G: -7.4 kcal/mol
  ∆H: -9.6 kcal/mol
  −T∆S: 2.2 kcal/mol
  -∆TS: 2.20
  Kd: 6 ± 0.8 µM
NikA [4]; listed as Zn-toxin A
  ∆G: -7.41 kcal/mol
  ∆H: -9.61 kcal/mol
[3]; Zn-Toxin A 0.19 μM
  Urease-dependent pH change (pH): 7.83 and 7.80
[3]; Zn-Toxin A 0.39 μM
  Urease-dependent pH change (pH): 7.83 and 7.88
[3]; Zn-Toxin A 0.78 μM
  Urease-dependent pH change (pH): 7.88 and 7.78
[3]; Zn-Toxin A 1.56 μM
  Urease-dependent pH change (pH): 7.66 and 7.81
[3]; Zn-Toxin A 3.12 μM
  Urease-dependent pH change (pH): 7.79 and 7.72
[3]; Zn-Toxin A 6.25 μM
  Urease-dependent pH change (pH): 7.83 and 7.77
[3]; Zn-Toxin A 12.5 μM
  Urease-dependent pH change (pH): 7.84 and 7.79
[3]; Zn-Toxin A 25 μM
  Urease-dependent pH change (pH): 7.79 and 7.82
[3]; Zn-Toxin A 50 μM
  Urease-dependent pH change (pH): 7.77 and 7.81
[3]; Zn-Toxin A 100 μM
  Urease-dependent pH change (pH): 7.79 and 7.77
[3]; Zn-Toxin A 200 μM
  Urease-dependent pH change (pH): 7.66 and 7.69

## NC(=O)C[C@H](NC[C@H](NC[C@H](N)C(=O)O)C(=O)O)C(=O)O.[Zn+2] [Zn-AMA(Asn)]
NikA [4]
  n (stoichiometry, ITC): 1.14
  ∆H: -13.1 kcal/mol
  −T∆S: 4.7 kcal/mol
  -∆TS: 4.73
  Kd: 1.3 ± 0.1 µM
  fold improvement of affinity for NikA: 7 fold
[3]
  Urease-dependent pH change (pH): 7.81 and 7.93 and 7.88 and 7.95
[3]; [7]
  EC50: 24 ± 6 µM
[3]; Zn-AMA(Asn) 0.19 μM
  Urease-dependent pH change (pH): 7.83 and 7.99
[3]; Zn-AMA(Asn) 0.39 μM
  Urease-dependent pH change (pH): 7.94 and 7.95
[3]; Zn-AMA(Asn) 3.12 μM
  Urease-dependent pH change (pH): 7.74 and 7.82
[3]; Zn-AMA(Asn) 6.25 μM
  Urease-dependent pH change (pH): 7.67 and 7.74
[3]; Zn-AMA(Asn) 12.5 μM
  Urease-dependent pH change (pH): 7.43 and 7.67
[3]; Zn-AMA(Asn) 25 μM
  Urease-dependent pH change (pH): 7.11 and 7.36
[3]; Zn-AMA(Asn) 50 μM
  Urease-dependent pH change (pH): 6.62 and 7.12
[3]; Zn-AMA(Asn) 100 μM
  Urease-dependent pH change (pH): 6.33 and 6.91
[3]; Zn-AMA(Asn) 200 μM
  Urease-dependent pH change (pH): 6.43 and 6.83

## NP(N)(=O)NC(=O)c1ccc(F)cc1 [fluorfamide, reference compound]
urease; Fluorofamide 0.000122 mM
  Specific activity (cell-free indophenol urease assay): 36.97 nmol/min/mg and 30.98 nmol/min/mg
urease; Fluorofamide 0.000244 mM
  Specific activity (cell-free indophenol urease assay): 36.32 nmol/min/mg and 35.04 nmol/min/mg
urease; Fluorofamide 0.000488 mM
  Specific activity (cell-free indophenol urease assay): 34.40 nmol/min/mg and 35.26 nmol/min/mg
urease; Fluorofamide 0.000977 mM
  Specific activity (cell-free indophenol urease assay): 30.98 nmol/min/mg and 33.12 nmol/min/mg
urease; Fluorofamide 0.001953 mM
  Specific activity (cell-free indophenol urease assay): 25.00 nmol/min/mg and 23.72 nmol/min/mg
urease; Fluorofamide 0.003906 mM
  Specific activity (cell-free indophenol urease assay): 16.88 nmol/min/mg
urease; Fluorofamide 0.007813 mM
  Specific activity (cell-free indophenol urease assay): 7.48 nmol/min/mg and 7.26 nmol/min/mg
urease; Fluorofamide 0.015625 mM
  Specific activity (cell-free indophenol urease assay): 2.56 nmol/min/mg and 2.35 nmol/min/mg
urease; Fluorofamide 0.03125 mM
  Specific activity (cell-free indophenol urease assay): 0.85 nmol/min/mg and 0.64 nmol/min/mg
urease; Fluorofamide 0.0625 mM
  Specific activity (cell-free indophenol urease assay): 0.21 nmol/min/mg

## CC(C)C[C@@H](C=O)NC(=O)[C@H](CC(C)C)NC(=O)[C@H](CC(C)C)NC(=O)OCc1ccccc1 [MG132, reference compound] (Cbz-Leu-Leu-Leu-aldehyde)
HEK293 cells; Homo sapiens, HEK293, 48 h, read-out: IC50 (HEK293 viability)
  IC50: 0.144 µg/mL (≈ 0.303 µM)
HEK293 cells; MG-132 0.06 μg/mL
  HEK 293T cytotoxicity assay raw signal: 553546 and 645337 and 439066
HEK293 cells; MG-132 0.12 μg/mL
  HEK 293T cytotoxicity assay raw signal: 287630 and 290638 and 251825
HEK293 cells; MG-132 0.24 μg/mL
  HEK 293T cytotoxicity assay raw signal: 228174 and 211174 and 145724
HEK293 cells; MG-132 0.49 μg/mL
  HEK 293T cytotoxicity assay raw signal: 127375 and 103739 and 100640
HEK293 cells; MG-132 0.98 μg/mL
  HEK 293T cytotoxicity assay raw signal: 76026 and 78297 and 72041
HEK293 cells; MG-132 1.95 μg/mL
  HEK 293T cytotoxicity assay raw signal: 47803 and 50917 and 47518
HEK293 cells; MG-132 7.81 μg/mL
  HEK 293T cytotoxicity assay raw signal: 52239 and 45457 and 61991
HEK293 cells; MG-132 15.63 μg/mL
  HEK 293T cytotoxicity assay raw signal: 62587 and 49620 and 71962
HEK293 cells; MG-132 31.25 μg/mL
  HEK 293T cytotoxicity assay raw signal: 50870 and 51533 and 85262

## N[C@@H](CN[C@@H](CN[C@@H](Cc1cnc[nH]1)C(=O)O)C(=O)O)C(=O)O.[Zn+2] [Zn-AMA(His)]
NikA [4]
  n (stoichiometry, ITC): 0.76
  ∆H: -13.1 kcal/mol
  −T∆S: 4.5 kcal/mol
  -∆TS: 4.48
  Kd: 0.8 ± 0.1 µM
  fold improvement of affinity for NikA: 7 fold
[3]
  Urease-dependent pH change (pH): 7.86 and 7.89 and 7.93 and 7.91
[3]; [7]
  EC50: > 200 µM
[3]; Zn-AMA(His) 0.19 μM
  Urease-dependent pH change (pH): 7.92 and 7.89
[3]; Zn-AMA(His) 0.39 μM
  Urease-dependent pH change (pH): 7.95 and 7.91
[3]; Zn-AMA(His) 3.12 μM
  Urease-dependent pH change (pH): 7.87 and 7.86
[3]; Zn-AMA(His) 6.25 μM
  Urease-dependent pH change (pH): 7.78 and 7.90
[3]; Zn-AMA(His) 12.5 μM
  Urease-dependent pH change (pH): 7.75 and 7.83
[3]; Zn-AMA(His) 25 μM
  Urease-dependent pH change (pH): 7.73 and 7.87
[3]; Zn-AMA(His) 50 μM
  Urease-dependent pH change (pH): 7.68 and 7.86
[3]; Zn-AMA(His) 100 μM
  Urease-dependent pH change (pH): 7.57 and 7.81
[3]; Zn-AMA(His) 200 μM
  Urease-dependent pH change (pH): 7.66 and 7.82

## [Cl-].[Cl-].[Co+2] [Co^2+, CoCl2]
NikA [1]
  effect on stability of recombinant NikA: did not affect it

## [Cl][Ni][Cl] [Ni^2+, NiCl2]
NikA [1]
  effect on stability of recombinant NikA: did not affect it

## CC(=O)NO [AHA, acetohydroxamic acid, reference compound]
[5]; AHA 0.1 mM
  Urease-dependent pH change (pH): 7.94
[5]; AHA 0.2 mM
  Urease-dependent pH change (pH): 8.07
[5]; AHA 0.4 mM
  Urease-dependent pH change (pH): 7.88
[5]; AHA 0.5 mM
  Urease-dependent pH change (pH): 8.25
[5]; AHA 0.8 mM
  Urease-dependent pH change (pH): 7.28
[5]; AHA 1.6 mM
  Urease-dependent pH change (pH): 6.77
[3]; [6]
  concentration required to achieve similar urease suppression: 12.8 mM

## CC(=NO)C(C)=NO [DMG, dimethylglyoxime, reference compound]
K. pneumoniae; 15.15 h
  Growth curve (culture density): 0.125 and 0.12
K. pneumoniae; 16.15 h
  Growth curve (culture density): 0.131 and 0.126
K. pneumoniae; 17.15 h
  Growth curve (culture density): 0.14 and 0.136
K. pneumoniae; Chelex-treated nitrogen-limited medium
  growth with urea as sole nitrogen source: did not
